Experimental data published in publication PMC8508710, “Biochemical Characterization of 13-Lipoxygenases of Arabidopsis thaliana” (International Journal of Molecular Sciences, 2021).

How the values were obtained:
Design in all cases: made in house; host or cells: E. coli Nico21(DE3), pET15b
LOX4 [1] = target: T1, LOX4 (Arabidopsis thaliana, UniProt Q9FNX8); test: Intrinsic fluorescence of LOX4; format: binding; settings: 156 µM chemical; λExc = 280 nm; control 98.1 ± 3.9
T1 sequence (Q9FNX8 71-926): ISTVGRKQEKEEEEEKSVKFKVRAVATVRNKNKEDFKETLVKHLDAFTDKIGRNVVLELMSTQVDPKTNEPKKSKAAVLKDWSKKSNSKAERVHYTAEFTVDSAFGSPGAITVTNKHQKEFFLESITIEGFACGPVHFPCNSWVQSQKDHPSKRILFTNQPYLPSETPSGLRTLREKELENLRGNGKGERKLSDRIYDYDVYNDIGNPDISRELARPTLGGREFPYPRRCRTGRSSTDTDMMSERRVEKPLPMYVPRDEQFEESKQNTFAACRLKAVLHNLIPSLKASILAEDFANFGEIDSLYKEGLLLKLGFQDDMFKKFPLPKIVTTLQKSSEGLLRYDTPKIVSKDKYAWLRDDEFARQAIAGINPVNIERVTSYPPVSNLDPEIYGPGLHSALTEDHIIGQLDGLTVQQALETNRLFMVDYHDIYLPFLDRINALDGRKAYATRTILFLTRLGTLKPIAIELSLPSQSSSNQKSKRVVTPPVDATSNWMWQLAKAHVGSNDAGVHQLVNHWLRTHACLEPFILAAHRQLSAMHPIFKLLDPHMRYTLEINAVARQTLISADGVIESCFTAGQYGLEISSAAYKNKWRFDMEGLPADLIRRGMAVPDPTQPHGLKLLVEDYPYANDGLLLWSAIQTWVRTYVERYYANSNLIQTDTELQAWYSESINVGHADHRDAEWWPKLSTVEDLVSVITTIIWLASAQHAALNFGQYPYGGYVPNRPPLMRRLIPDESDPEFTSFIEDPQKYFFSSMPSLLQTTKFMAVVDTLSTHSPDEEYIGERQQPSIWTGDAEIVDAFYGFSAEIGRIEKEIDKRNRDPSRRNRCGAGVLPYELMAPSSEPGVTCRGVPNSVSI
Procedure: (§1) Figure 5 Analysis of the interaction of 12-OPDA and MJ with LOX4. […] LOX4 (0.22 µg/µL) was incubated with compounds at indicated concentrations for 10 min at 30 °C, and residual LOX activity was measured spectrophotometrically by the injection of 3 µL incubation mixture into 123 µL LeA (4.8 µM in 50 mM Tris-HCl, pH 7.2). […] (B) Intrinsic fluorescence of LOX4 incubated with 12-OPDA, MJ and solvent (control). Here, 120 µL LOX4 (0.2 µg/µL) was mixed with 15 µL chemical (1.4 mM in 50 mM K-Pi, pH 8.0) or solvent (control) and analyzed for intrinsic fluorescence emission after excitation at λExc = 280 nm. Mean graphs are shown (n = 4).

LOX2 = target: T2, LOX2 (Arabidopsis thaliana, UniProt P38418); test: Intrinsic fluorescence of LOX2; format: binding; settings: as Figure 5B; for Emission maximum: control 336.5±0.6, in nm (unit assumed); for Relative fluorescence intensity at emission maximum: λExc = 280 nm, control 125.5±2.0
T2 sequence (P38418 71-896): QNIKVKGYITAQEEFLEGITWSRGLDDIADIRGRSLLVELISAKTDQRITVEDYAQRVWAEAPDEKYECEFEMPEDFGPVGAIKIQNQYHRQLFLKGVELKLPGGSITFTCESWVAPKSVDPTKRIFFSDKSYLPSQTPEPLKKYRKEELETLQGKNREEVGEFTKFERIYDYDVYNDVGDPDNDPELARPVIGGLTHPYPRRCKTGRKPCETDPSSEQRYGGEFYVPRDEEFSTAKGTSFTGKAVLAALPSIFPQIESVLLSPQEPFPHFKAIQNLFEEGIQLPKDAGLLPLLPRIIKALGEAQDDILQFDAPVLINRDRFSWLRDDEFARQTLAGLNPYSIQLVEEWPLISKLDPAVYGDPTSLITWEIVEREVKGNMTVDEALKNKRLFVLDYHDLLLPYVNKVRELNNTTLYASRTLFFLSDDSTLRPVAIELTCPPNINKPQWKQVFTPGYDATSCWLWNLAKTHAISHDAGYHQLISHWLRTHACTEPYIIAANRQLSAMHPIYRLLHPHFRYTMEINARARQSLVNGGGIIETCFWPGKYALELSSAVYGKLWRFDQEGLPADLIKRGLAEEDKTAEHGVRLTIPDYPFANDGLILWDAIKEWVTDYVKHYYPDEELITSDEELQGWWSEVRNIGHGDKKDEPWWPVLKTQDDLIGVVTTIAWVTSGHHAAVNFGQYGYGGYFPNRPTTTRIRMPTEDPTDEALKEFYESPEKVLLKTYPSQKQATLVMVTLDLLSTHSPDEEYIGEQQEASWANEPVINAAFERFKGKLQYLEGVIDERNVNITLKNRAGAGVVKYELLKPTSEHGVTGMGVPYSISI
Procedure: as §1
Int. J. Mol. Sci. 2021, 22, x FOR PEER REVIEW 11 of 17
Figure S7. Interaction and activity studies of LOX2, LOX3 and LOX6. (A) LOX2, LOX3 and LOX6 activities in presence of increasing amounts of MJ and 12-OPDA. Analysis was performed as described for IC50 determination of LOX4 (see Figure 5A). 100% activity […]
(B) Intrinsic fluorescence of LOX2 and LOX3 incubated with 12-OPDA, MJ and solvent control. Analysis was performed as in Figure 5B. […]

LOX4 [2] = target: T1, LOX4; test: Free thiols of LOX4 (Ellman, DTNB); settings: LOX4 4.2 µM incubated 20 min with 12-OPDA; control 7.6 ± 0.1
Procedure: The iron content was analyzed as described. Free protein thiols were determined as described in [80] with slight variations. Briefly, 150 µL LOX4 (4.2 µM) was mixed with 1.5 µL 30 mM 12-OPDA (in EtOH) or EtOH (solvent control). After 20 min of incubation at 25 °C, samples were mixed with 10 µL dithionitrobencene (DTNB, 2 mM in 40 mM K-Pi, pH 8.0) and incubated for 30 min in the dark. Samples were measured at 412 nm, ε412nm = 13,600 […] (KC4 microplate reader, Biotec, 25 °C) for determination of the thiol/protein ratio with background correction (150 µL 40 mM K-Pi, pH 8.0, 10 µL DTNB 2 mM, 1.5 µL ligand stock or EtOH).

CCC=CCC1C(=O)C=CC1CCCCCCCC(=O)O (stereo not drawn) [12-OPDA, cis-(+)-12-oxophytodienoic acid]
Relative fluorescence emission at 333 nm (LOX4 [1]): 86.2 ± 3.9
Emission maximum (LOX2): 337.2±0.3
Relative fluorescence intensity at emission maximum (LOX2): 117.5±2.0
Free thiols (Cys residues) of LOX4 after incubation (LOX4 [2]): 5.9 ± 0.1 mol·mol^−1

CC/C=C\CC1C(=O)CCC1CC(=O)OC (stereo not shown) [MJ, methyl jasmonate]
Relative fluorescence emission at 333 nm (LOX4 [1]): 98.0 ± 2.4
Emission maximum (LOX2): 337.3±0.6
Relative fluorescence intensity at emission maximum (LOX2): 119.7±2.7
